Data taken from the supplement of paper PMC10307832.

Legend:
Experiment in all cases: relative viability (nuclei count vs DMSO), 5 days (fraction); higher = more cells survive
[1] = compound: C1=CC=C2C(=C1)N=C(S2)C(C#N)C3=NC(=NC=C3)NCCC4=CN=CC=C4 + NC(=O)Nc1cc(-c2cccc(F)c2)sc1C(=O)N[C@H]1CCCNC1 [AZD7762] (partner 0.2 µM)
Method in brief: (§1)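 Lung cancer cell lines, seeded in 1536-well plates, were treated the following day by pin tool with a single drug or with five library-drug doses (not always all listed) in √10 steps on top of a fixed anchor-drug dose. Cells were fixed and nuclei stained in one step after 5 days, and nuclei were counted. Relative viability is the nuclei count for treated wells divided by that for vehicle wells, reported as medians of duplicate plates.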

[2] = compound: C1=CC=C2C(=C1)N=C(S2)C(C#N)C3=NC(=NC=C3)NCCC4=CN=CC=C4 + COc1cccc2cc(-c3nc([C@H]4CC[C@H](C(=O)O)CC4)n4ncnc(N)c34)[nH]c12 [OSI-027] (partner 0.5 µM)
Method in brief: as §1

[3] = compound: COc1cc2/c(=N/c3ccc(Br)cc3F)nc[nH]c2cc1OCC1CCN(C)CC1 [Vandetanib] + COc1cc2c(Oc3ccc(NC(=O)C4(C(=O)Nc5ccc(F)cc5)CC4)cc3F)ccnc2cc1OCCCN1CCOCC1 [Foretinib] (partner 0.25 µM)
Method in brief: as §1

[4] = compound: COc1cc(N2CCC(N3CCN(C)CC3)CC2)ccc1Nc1ncc(Cl)c(Nc2ccccc2S(=O)(=O)C(C)C)n1 [NVP-TAE684] + Cc1nc(Nc2ncc(C(=O)Nc3c(C)cccc3Cl)s2)cc(N2CCN(CCO)CC2)n1 [Dasatinib] (partner 0.075 µM)
Method in brief: as §1

Cell Line	relative viability ([1]; first compound 0.01581 µM)	relative viability ([1]; first compound 0.05 µM)	relative viability ([1]; first compound 0.1581 µM)	relative viability ([1]; first compound 0.5 µM)	relative viability ([2]; first compound 0.005 µM)	relative viability ([2]; first compound 0.01581 µM)	relative viability ([2]; first compound 0.05 µM)	relative viability ([2]; first compound 0.1581 µM)	relative viability ([2]; first compound 0.5 µM)	relative viability ([3]; first compound 0.02 µM)	relative viability ([3]; first compound 0.06325 µM)	relative viability ([3]; first compound 0.2 µM)	relative viability ([3]; first compound 0.6325 µM)	relative viability ([3]; first compound 2 µM)	relative viability ([4]; first compound 0.2 µM)	relative viability ([4]; first compound 0.6325 µM)	relative viability ([4]; first compound 2 µM)	relative viability ([1]; first compound 0.005 µM)
NCI-H1793	0.391	0.58	0.513	0.306	0.276	0.303	0.215	0.261	0.245	0.605	0.606	0.406	0.648	0.41	0.402	0.321	0.328	
HARA	0.358	0.38	0.275	0.356	0.602	0.373	0.493	0.464	0.472	0.889	0.753	0.36	0.89	0.735	0.24	0.172	0.141	0.2
LXF-289	1.17	1.06	1.27	0.982	0.515	0.863	0.797	0.846	0.589	1.01	0.954	0.978	0.968	0.937	0.191	0.141	0.111	1.01
201T	0.674	0.69	0.707	0.56	0.935	0.696	0.7	0.833	0.779	1.08	0.996	1.06	1.15	1	0.703	0.46	0.314	0.542
LCLC-103H	0.784	0.804	0.929	0.779	0.387	0.521	0.41	0.505	0.397	0.864	0.786	0.679	0.899	0.714	0.568	0.464	0.168	0.849
RERF-LC-KJ	0.977	1.02	1.23	0.964	0.645	0.564	0.511	0.63	0.562	0.875	0.951	0.904	0.882	0.937	0.667	0.596	0.327	0.984
NCI-H1975	0.635	0.711	0.743	0.506	0.511	0.819	0.613	0.811	0.283	0.908	0.901	0.136	0.842	0.912	0.361	0.225	0.186	0.639
PC-3 [JPC-3]		0.822	0.997	0.654	0.717	0.877	0.771	0.888	0.483	0.984	0.904	0.936	0.894	0.468	0.942	0.979	0.649	0.702
EPLC-272H	0.243	0.254	0.25	0.21	0.217	0.264	0.254	0.257	0.301	0.592		0.708	0.708	0.474	0.181	0.186	0.0612	0.307
